This is an account of results in ChEMBL document CHEMBL1134592, “Design and synthesis of matrix metalloproteinase inhibitors guided by molecular modeling. Picking the S(1) pocket using conformationally constrained inhibitors” (J Med Chem, 2001).

The IC50 is the concentration at which inhibition is half-maximal. A lower IC50 goes with greater potency in that assay.

Assay [1] deals with 72 kDa type IV collagenase (Homo sapiens, UniProt P08253). The assay can be described thus: Inhibition of matrix metalloprotease-2.
Sequence of 72 kDa type IV collagenase (P08253 whole entry): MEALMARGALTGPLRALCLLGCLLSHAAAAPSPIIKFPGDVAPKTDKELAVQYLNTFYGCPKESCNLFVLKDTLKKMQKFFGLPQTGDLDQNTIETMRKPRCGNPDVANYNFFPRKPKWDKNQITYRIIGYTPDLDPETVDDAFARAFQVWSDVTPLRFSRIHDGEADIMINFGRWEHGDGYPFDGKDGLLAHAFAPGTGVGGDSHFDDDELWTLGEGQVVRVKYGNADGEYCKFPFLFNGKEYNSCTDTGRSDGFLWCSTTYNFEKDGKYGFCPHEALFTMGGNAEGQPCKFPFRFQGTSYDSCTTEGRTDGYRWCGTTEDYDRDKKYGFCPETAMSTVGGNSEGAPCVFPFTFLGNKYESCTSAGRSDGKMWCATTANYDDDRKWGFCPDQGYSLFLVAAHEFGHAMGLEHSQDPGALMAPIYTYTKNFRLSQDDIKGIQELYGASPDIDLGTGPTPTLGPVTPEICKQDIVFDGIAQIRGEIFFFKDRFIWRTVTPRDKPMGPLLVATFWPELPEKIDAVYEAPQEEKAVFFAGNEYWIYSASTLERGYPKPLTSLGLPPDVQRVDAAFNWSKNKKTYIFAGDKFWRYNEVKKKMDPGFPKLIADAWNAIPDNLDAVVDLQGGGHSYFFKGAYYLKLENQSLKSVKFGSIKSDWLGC
Assay [2] has as its target Stromelysin-1 (Homo sapiens, UniProt P08254). The assay is described as follows: Inhibition of matrix metalloprotease-3.
Assay [3] has as its target Collagenase 3 (Homo sapiens, UniProt P45452). The assay can be described thus: Inhibition of matrix metalloprotease-13.
Assay [4] has as its target Matrix metalloproteinase-9 (Homo sapiens, UniProt P14780). The assay is described as follows: Inhibition of human matrix metalloprotease-9.
Assay [5] addresses T1, Interstitial collagenase (Homo sapiens, UniProt P03956).
T1 sequence (P03956 whole entry): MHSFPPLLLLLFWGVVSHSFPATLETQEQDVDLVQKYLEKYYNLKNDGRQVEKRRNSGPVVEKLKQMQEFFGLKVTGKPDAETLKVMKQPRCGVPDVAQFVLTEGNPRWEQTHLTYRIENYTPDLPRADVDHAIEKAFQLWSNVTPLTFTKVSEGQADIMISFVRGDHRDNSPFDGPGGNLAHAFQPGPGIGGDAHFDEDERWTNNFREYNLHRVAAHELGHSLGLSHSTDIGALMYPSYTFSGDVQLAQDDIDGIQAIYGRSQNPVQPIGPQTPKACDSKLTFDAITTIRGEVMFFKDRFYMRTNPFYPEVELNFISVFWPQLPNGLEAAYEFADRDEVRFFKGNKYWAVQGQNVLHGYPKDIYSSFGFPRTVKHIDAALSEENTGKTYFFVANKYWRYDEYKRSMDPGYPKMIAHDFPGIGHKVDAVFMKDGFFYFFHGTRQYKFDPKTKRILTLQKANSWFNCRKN
The assay can be described thus: Inhibition of human matrix metalloprotease-1.

Sequence of Stromelysin-1 (P08254 whole entry): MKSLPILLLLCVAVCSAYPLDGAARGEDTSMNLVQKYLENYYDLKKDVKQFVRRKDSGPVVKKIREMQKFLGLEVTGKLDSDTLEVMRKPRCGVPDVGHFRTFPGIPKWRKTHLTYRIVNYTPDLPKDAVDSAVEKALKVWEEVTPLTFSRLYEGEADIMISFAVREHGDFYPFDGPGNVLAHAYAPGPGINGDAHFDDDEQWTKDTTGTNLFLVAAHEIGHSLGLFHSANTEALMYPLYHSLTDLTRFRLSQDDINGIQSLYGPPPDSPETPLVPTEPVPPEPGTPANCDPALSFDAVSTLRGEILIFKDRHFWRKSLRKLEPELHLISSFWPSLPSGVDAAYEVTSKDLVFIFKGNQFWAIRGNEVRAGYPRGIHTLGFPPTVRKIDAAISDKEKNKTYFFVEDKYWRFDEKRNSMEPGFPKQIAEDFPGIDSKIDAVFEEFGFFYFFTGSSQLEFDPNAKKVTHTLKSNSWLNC
Sequence of Matrix metalloproteinase-9 (P14780 whole entry): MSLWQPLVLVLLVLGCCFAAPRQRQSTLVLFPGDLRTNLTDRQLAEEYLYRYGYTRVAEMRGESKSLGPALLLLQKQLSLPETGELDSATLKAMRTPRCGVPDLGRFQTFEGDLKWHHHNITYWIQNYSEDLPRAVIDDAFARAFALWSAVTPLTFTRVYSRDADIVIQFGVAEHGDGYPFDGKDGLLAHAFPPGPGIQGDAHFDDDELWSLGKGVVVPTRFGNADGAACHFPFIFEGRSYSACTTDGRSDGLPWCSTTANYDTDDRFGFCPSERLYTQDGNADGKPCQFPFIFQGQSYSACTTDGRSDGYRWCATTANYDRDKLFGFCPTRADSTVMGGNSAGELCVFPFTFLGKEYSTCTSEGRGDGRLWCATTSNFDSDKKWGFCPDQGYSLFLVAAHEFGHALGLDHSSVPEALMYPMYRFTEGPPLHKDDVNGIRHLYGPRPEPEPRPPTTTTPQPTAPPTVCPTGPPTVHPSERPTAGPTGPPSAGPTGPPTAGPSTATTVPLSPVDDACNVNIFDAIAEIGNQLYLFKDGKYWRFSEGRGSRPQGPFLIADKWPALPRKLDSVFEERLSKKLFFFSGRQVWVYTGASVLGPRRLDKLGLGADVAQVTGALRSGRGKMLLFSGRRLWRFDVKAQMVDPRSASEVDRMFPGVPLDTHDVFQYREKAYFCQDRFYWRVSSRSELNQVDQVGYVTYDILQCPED

Take `COc1ccc(S(=O)(=O)N2CC(C)(C)C(CO)[C@@H]2C(=O)NO)cc1` (some centres not stated): the IC50 in assay [1] was 143 nM; in assay [2], 136 nM; in assay [3], 218 nM; in assay [4], 50 nM.
As to `C=CC1[C@H](C(=O)NO)N(S(=O)(=O)c2ccc(OC)cc2)CC1(C)C` (some centres not stated), the IC50 in assay [1] was 441 nM; in assay [2] it was 293 nM; in assay [3], 519 nM; in assay [4], 138 nM.
As to `COc1ccc(S(=O)(=O)N(CC(C)C)[C@H](CCSCc2ccccc2)C(=O)NO)cc1`, the IC50 was 0.7 nM in assay [1]; 0.7 nM in assay [2]; 104 nM in assay [5]; 12 nM in assay [3]; 2.5 nM in assay [4].
Take `COc1ccc(S(=O)(=O)N2CC(C)(C)C([C@@H](O)CSc3ccccc3)[C@@H]2C(=O)NO)cc1` (some centres not stated): the IC50 in assay [1] came to 16.2 nM; in assay [2] it was 18.7 nM; in assay [5] it was 301 nM; in assay [3] it was 18.1 nM; in assay [4], 3.6 nM.
Turning to `COc1ccc(S(=O)(=O)N2CC(C)(C)C(CSCCc3ccccc3)[C@@H]2C(=O)NO)cc1` (some centres not stated), the IC50 in assay [1] was found to be 15.4 nM; in assay [2] it was 6.5 nM; in assay [5], 654 nM; in assay [3], 17 nM; in assay [4] it was 2.8 nM.
For the compound `COc1ccc(S(=O)(=O)N2CC(C)(C)C(CSCc3ccccc3)[C@@H]2C(=O)NO)cc1` (some centres not stated), the IC50 is 1.64 nM in assay [1], 6.7 nM in assay [2], 5.5 nM in assay [3] and 0.9 nM in assay [4].
Consider `COc1ccc(S(=O)(=O)N2CC(C)(C)C([C@H](O)CSc3ccccc3)[C@@H]2C(=O)NO)cc1` (some centres not stated), for which the IC50 came to 2.5 nM in assay [1]; 3 nM in assay [2]; 117 nM in assay [5]; 3.7 nM in assay [3]; 0.9 nM in assay [4].
Turning to `COc1ccc(S(=O)(=O)N2CC(C)(C)C(COCc3ccccc3)[C@@H]2C(=O)NO)cc1` (some centres not stated), the IC50 was determined as 32 nM in assay [1]; 10.1 nM in assay [2]; 1620 nM in assay [5]; 44.2 nM in assay [3]; 9.2 nM in assay [4].
With `COc1ccc(CSCC2[C@H](C(=O)NO)N(S(=O)(=O)c3ccc(OC)cc3)CC2(C)C)cc1` (some centres not stated), the IC50 in assay [1] is 4.6 nM; in assay [2] it was 16.7 nM; in assay [5] it was 458 nM; in assay [3], 22.3 nM; in assay [4], 4.4 nM.
